How the values were obtained:
[1] = logP by HPLC on reversed-phase column (C 18), EEC Directive 79/831 Annex V.A8; type: physicochemical
Experimental: In table 1, the logP values were determined in accordance with EEC Directive 79/831 Annex V.A8 by HPLC (High Performance Liquid Chromatography) on a reversed-phase column (C 18), using the method described below: Temperature: 40° C.; […]

aflatoxines production = test: microbe, parasite or virus in culture; type: cell-based, Aspergillus parasiticus; settings: 50 μM
Fusarium graminearum = test: microbe, parasite or virus in culture; type: cell-based; settings: 50 μM
Alternaria solani = test: In vivo preventive test on Alternaria solani (tomato); settings: evaluated 7 days after inoculation
From the text: One day after this treatment, the plants are inoculated with an aqueous spore suspension of Alternaria solani.

Pyrenophora teres = test: In vivo preventive test on Pyrenophora teres (barley); settings: 500 ppm of active ingredient, evaluated 7-9 days after inoculation
From the text: One day after this treatment, the plants are inoculated with an aqueous spore suspension of Pyrenophora teres.

Which logP [1] does the source give for `Cc1scc(CCNC(=O)c2c(C(F)F)nn(C)c2Cl)c1C` [Example 168] here?
The logP was 3.02.

What about the “% Inhibition of Aflatoxin at 50 μM” value (aflatoxines production) of the same compound?
The value was 100%.

What about the “% Inhibition of fungal growth at 50 μM” value (Fusarium graminearum) of the same compound?
Its value is 97%.

With `Cn1nc(C(F)F)c(C(=O)NCCc2csc3c2CCCC3)c1F` [Example 170] as the compound, how does the logP [1] read?
The logP was 3.31.

And the “% Inhibition of Aflatoxin at 50 μM” value (aflatoxines production)?
The value was 100%.

And the “% Inhibition of fungal growth at 50 μM” value (Fusarium graminearum)?
The value was 95%.

Which results are given for `CCN(CCc1ccc(Cl)cc1)C(=O)c1c(C(F)F)nn(C)c1Cl` [Example 57]?
logP [1]: 3.35; Efficacy (Alternaria solani; 500 ppm of active ingredient): 80%; Efficacy (Pyrenophora teres): 70%

Which logP [1] does the source give for `Cn1nc(C(F)F)c(C(=O)NCC(C)(C)c2ccc(Cl)cc2)c1Cl` [Example 64] here?
The logP was 3.58.

What about the Efficacy (Alternaria solani; 500 ppm of active ingredient) of the same compound?
Its Efficacy is 100%.

What does the source list for `CC(CN(C)C(=O)c1c(C(F)F)nn(C)c1Cl)c1ccncc1` (centres unmarked) [Example 207]?
logP [1]: 1.74; % Inhibition of Aflatoxin at 50 μM (aflatoxines production): 99%; % Inhibition of fungal growth at 50 μM (Fusarium graminearum): 37%

What does the source list for `CC(Cc1cccc(Cl)c1)NC(=O)c1c(C(F)F)nn(C)c1Cl` (centres unmarked) [Example 48]?
logP [1]: 3.17; Efficacy (Alternaria solani; 500 ppm of active ingredient): 95%; Efficacy (Pyrenophora teres): 100%

Which results are given for `Cn1nc(C(F)F)c(C(=O)NCCc2ccc(Oc3ccccc3)cc2)c1Cl` [Example 155]?
logP [1]: 3.60; Efficacy (Alternaria solani; 500 ppm of active ingredient): 95%; Efficacy (Pyrenophora teres): 100%

With `CN(CCc1ccccc1)C(=O)c1c(C(F)F)nn(C)c1Cl` [Example 9] as the compound, how does the logP [1] read?
The logP was 2.60.

What about the Efficacy (Alternaria solani; 500 ppm of active ingredient) of the same compound?
Its Efficacy is 95%.

And the Efficacy (Pyrenophora teres)?
Its Efficacy is 95%.

Which Efficacy (Alternaria solani; 100 ppm of active ingredient) does the source give for `COC(CNC(=O)c1cn(C)nc1C(F)F)c1ccc(Cl)cc1Cl` (centres unmarked) [1.02 from WO-2008/148570, N-[2-(2,4-dichlorophenyl)-2-methoxyethyl]-3-(difluoromethyl)-1-methyl-1H-pyrazole-4-carboxamide, reference compound] here?
Its Efficacy is 40%.

And the Efficacy (Alternaria solani; 100 ppm of active ingredient, listed as 1.02)?
The Efficacy was “less than 40%”.

What about the Efficacy (Alternaria solani; 500 ppm of active ingredient) of the same compound?
Its Efficacy is 80%.

And the Efficacy (Alternaria solani; 500 ppm of active ingredient, listed as 1.02)?
Its Efficacy is “at least 80%”.

What does the source list for `Cn1nc(C(F)F)c(C(=S)NC[Si](C)(C)c2ccccc2Cl)c1F` [Example 234]?
logP [1]: 4.11; Efficacy (Alternaria solani; 500 ppm of active ingredient): 70%; Efficacy (Pyrenophora teres): 100%

For `CN(CCc1ccc(C(C)(C)C)cc1)C(=O)c1c(C(F)F)nn(C)c1Cl` [Example 139], which logP [1] is on record?
The logP was 3.96.

What about the Efficacy (Alternaria solani; 500 ppm of active ingredient) of the same compound?
Its Efficacy is 90%.

What about the Efficacy (Pyrenophora teres) of the same compound?
The Efficacy was 90%.

With `CC(Cc1c(F)cccc1F)N(C(=O)c1c(C(F)F)nn(C)c1Cl)C1CC1` (centres unmarked) [Example 27] as the compound, how does the logP [1] read?
Its logP is 3.57.

And the Efficacy (Alternaria solani; 500 ppm of active ingredient)?
The Efficacy was 95%.

What about the Efficacy (Pyrenophora teres) of the same compound?
Its Efficacy is 95%.

Which logP [1] does the source give for `Cn1nc(C(F)F)c(C(=O)NCC(C)(C)c2cc(Cl)cc(Cl)c2)c1F` [Example 113] here?
Its logP is 3.87.

What about the Efficacy (Alternaria solani; 500 ppm of active ingredient) of the same compound?
The Efficacy was 80%.

And the Efficacy (Pyrenophora teres)?
The Efficacy was 90%.

With `Cn1nc(C(F)F)c(C(=O)NC(C)(C)Cc2cccc(Oc3ccccc3)c2)c1Cl` [Example 144] as the compound, how does the logP [1] read?
The logP was 4.30.

What about the Efficacy (Alternaria solani; 500 ppm of active ingredient) of the same compound?
The Efficacy was 95%.

With `CCN(CCc1ccc(Cl)cc1)C(=S)c1c(C(F)F)nn(C)c1F` [Example 58] as the compound, how does the logP [1] read?
Its logP is 3.92.

And the Efficacy (Pyrenophora teres)?
Its Efficacy is 100%.

What does the source list for `Cn1nc(C(F)F)c(C(=S)NC[Si](C)(C)c2ccc(Cl)cc2Cl)c1F` [Example 241]?
logP [1]: 4.74; Efficacy (Pyrenophora teres): 100%

Which logP [1] does the source give for `Cn1nc(C(F)F)c(C(=O)NCC(C)(C)c2ccc(Cl)cc2)c1F` [Example 63] here?
Its logP is 3.37.

And the Efficacy (Alternaria solani; 500 ppm of active ingredient)?
The Efficacy was 90%.

And the Efficacy (Pyrenophora teres)?
The Efficacy was 94%.

Which logP [1] does the source give for `Cn1nc(C(F)F)c(C(=O)NC(C)(C)Cc2cccc(Oc3ccccc3)c2)c1F` [Example 142] here?
The logP was 4.09.

What about the Efficacy (Alternaria solani; 500 ppm of active ingredient) of the same compound?
The Efficacy was 90%.

What about the Efficacy (Pyrenophora teres) of the same compound?
Its Efficacy is 78%.

Which logP [1] does the source give for `Cn1nc(C(F)F)c(C(=S)NCCc2ccc(Cl)cc2Cl)c1Cl` [Example 72] here?
The logP was 4.11.

What about the Efficacy (Alternaria solani; 500 ppm of active ingredient) of the same compound?
The Efficacy was 94%.

What about the Efficacy (Pyrenophora teres) of the same compound?
The Efficacy was 100%.

With `CC(Cc1c(Cl)cccc1Cl)N(C(=O)c1c(C(F)F)nn(C)c1Cl)C1CC1` (centres unmarked) [Example 116] as the compound, how does the logP [1] read?
The logP was 4.29.

And the Efficacy (Alternaria solani; 500 ppm of active ingredient)?
Its Efficacy is 100%.

And the Efficacy (Pyrenophora teres)?
Its Efficacy is 100%.

With `Cn1nc(C(F)F)c(C(=O)NCCc2cccc(Oc3ccccc3)c2)c1F` [Example 143] as the compound, how does the logP [1] read?
The logP was 3.37.

And the Efficacy (Alternaria solani; 500 ppm of active ingredient)?
Its Efficacy is 95%.

What about the Efficacy (Pyrenophora teres) of the same compound?
Its Efficacy is 89%.

Which results are given for `Cn1nc(C(F)F)c(C(=O)NCCc2ccccc2C(F)(F)F)c1Cl` [Example 122]?
logP [1]: 3.11; Efficacy (Alternaria solani; 500 ppm of active ingredient): 95%; Efficacy (Pyrenophora teres): 94%

With `Cn1nc(C(F)F)c(C(=O)NCC(C)(C)c2ccccc2Cl)c1Cl` [Example 46] as the compound, how does the logP [1] read?
Its logP is 3.48.

What about the Efficacy (Alternaria solani; 500 ppm of active ingredient) of the same compound?
The Efficacy was 70%.

Which logP [1] does the source give for `Cn1nc(C(F)F)c(C(=O)N(CCc2ccccc2)CC(F)(F)F)c1F` [Example 5] here?
Its logP is 3.25.

What about the Efficacy (Pyrenophora teres) of the same compound?
Its Efficacy is 80%.

With `Cn1nc(C(F)F)c(C(=O)NCC(C)(C)c2cccc(Oc3ccccc3)c2)c1F` [Example 148] as the compound, how does the logP [1] read?
Its logP is 3.92.

For `Cc1cc(C)c(CCN(C(=O)c2c(C(F)F)nn(C)c2F)C(C)C)c(C)c1` [Example 134], which logP [1] is on record?
The logP was 4.30.

With `Cn1nc(C(F)F)c(C(=O)N(CCc2ccccn2)C2CCCC2)c1F` [Example 176] as the compound, how does the logP [1] read?
Its logP is 1.29.

Which results are given for `Cn1nc(C(F)F)c(C(=O)NCC(C)(C)c2ccccc2Cl)c1F` [Example 45]?
logP [1]: 3.27; Efficacy (Alternaria solani; 500 ppm of active ingredient): 90%; Efficacy (Pyrenophora teres): 100%

What does the source list for `Cn1nc(C(F)F)c(C(=O)NCC(C)(C)c2cccc(Cl)c2)c1F` [Example 53]?
logP [1]: 3.31; Efficacy (Alternaria solani; 500 ppm of active ingredient): 70%; Efficacy (Pyrenophora teres): 94%

Which logP [1] does the source give for `Cn1nc(C(F)F)c(C(=S)NCC(C)(C)c2ccc(Cl)cc2Cl)c1Cl` [Example 89] here?
The logP was 4.72.

And the Efficacy (Pyrenophora teres)?
The Efficacy was 100%.

With `Cn1nc(C(F)F)c(C(=O)N(C[Si](C)(C)c2ccc3ccccc3c2)C2CC2)c1Cl` [Example 246] as the compound, how does the logP [1] read?
Its logP is 4.51.

With `Cn1nc(C(F)F)c(C(=O)N(CCc2ccccc2)CC(F)(F)F)c1Cl` [Example 10] as the compound, how does the logP [1] read?
Its logP is 3.39.

Which logP [1] does the source give for `Cc1cc(C)c(CCN(C)C(=O)c2c(C(F)F)nn(C)c2Cl)c(C)c1` [Example 137] here?
The logP was 3.67.

What about the Efficacy (Alternaria solani; 500 ppm of active ingredient) of the same compound?
The Efficacy was 90%.

For `COCCN(CCc1ccccn1)C(=O)c1c(C(F)F)nn(C)c1F` [Example 177], which logP [1] is on record?
The logP was 0.50.

For `Cn1nc(C(F)F)c(C(=O)NCCc2cccc(Oc3ccccc3)c2)c1Cl` [Example 145], which logP [1] is on record?
Its logP is 3.55.

What about the Efficacy (Alternaria solani; 500 ppm of active ingredient) of the same compound?
The Efficacy was 95%.

Which logP [1] does the source give for `CC(C)N(CCc1ccccc1)C(=O)c1c(C(F)F)nn(C)c1Cl` [Example 7] here?
Its logP is 3.35.

For `Cn1nc(C(F)F)c(C(=O)NC2CCCCC2c2ccccc2)c1F` (centres unmarked) [Example 213], which logP [1] is on record?
Its logP is 3.29.

What about the Efficacy (Alternaria solani; 500 ppm of active ingredient) of the same compound?
Its Efficacy is 89%.

Which logP [1] does the source give for `Cn1nc(C(F)F)c(C(=O)NCC(C)(C)c2ccc(Oc3ccccc3)cc2)c1F` [Example 157] here?
The logP was 4.06.

What about the Efficacy (Pyrenophora teres) of the same compound?
The Efficacy was 80%.

Which results are given for `Cn1nc(C(F)F)c(C(=O)NCC(C)(C)c2cc(Cl)cc(Cl)c2)c1Cl` [Example 114]?
logP [1]: 4.01; Efficacy (Pyrenophora teres): 80%

For `CC(C)N(CCc1ccccn1)C(=O)c1c(C(F)F)nn(C)c1Cl` [Example 182], which logP [1] is on record?
Its logP is 1.00.

Which logP [1] does the source give for `COCCN(CCc1ccccn1)C(=O)c1c(C(F)F)nn(C)c1Cl` [Example 184] here?
Its logP is 0.63.

Which logP [1] does the source give for `Cn1nc(C(F)F)c(C(=O)NCCc2ccccc2Oc2ccccc2)c1F` [Example 140] here?
The logP was 3.48.

And the Efficacy (Alternaria solani; 500 ppm of active ingredient)?
Its Efficacy is 100%.

What about the Efficacy (Pyrenophora teres) of the same compound?
Its Efficacy is 95%.

With `Cn1nc(C(F)F)c(C(=O)NCC(C)(C)c2cccc(Cl)c2)c1Cl` [Example 54] as the compound, how does the logP [1] read?
The logP was 3.53.

Which logP [1] does the source give for `Cn1nc(C(F)F)c(C(=O)NCC(C)(C)c2ccc(Oc3ccccc3)cc2)c1Cl` [Example 158] here?
The logP was 4.21.

What about the Efficacy (Alternaria solani; 500 ppm of active ingredient) of the same compound?
Its Efficacy is 80%.

Which logP [1] does the source give for `Cn1nc(C(F)F)c(C(=O)NCCc2ccccc2Oc2ccccc2)c1Cl` [Example 141] here?
The logP was 3.64.

What about the Efficacy (Alternaria solani; 500 ppm of active ingredient) of the same compound?
The Efficacy was 80%.

With `Cn1nc(C(F)F)c(C(=O)NCC(C)(C)c2cccc(Oc3ccccc3)c2)c1Cl` [Example 149] as the compound, how does the logP [1] read?
The logP was 4.15.

For `Cc1cccnc1CC(NC(=O)c1c(C(F)F)nn(C)c1Cl)C(F)(F)F` (centres unmarked) [Example 186], which logP [1] is on record?
Its logP is 1.70.

Reference: patent US9232799B2, “N-[(het)arylethyl)] pyrazole(thio)carboxamides and their heterosubstituted analogues” (BAYER INTELLECTUAL PROPERTY GMBH, priority 2010, dated 2016)
